Read-outs that look alike come from different tables or passages of the source.
Assays:
[1] = biological target: T1, GSK3a (GST-full length GSK3a) (Homo sapiens, UniProt P49840); assay: GSK3a TR-FRET kinase inhibition assay; assay type: biochemical
T1 construct: GST-full length GSK3a [SignalChem G08-10G]; purchased SignalChem G08-10G
Outline: (§1)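 GST-tagged full-length human kinase (1 nM), pre-incubated 30 min with compound, then reacted 100 min at ambient temperature at pH 7.5 with 200 nM biotinylated phospho-S645 glycogen synthase 631–650 peptide and ATP at 2 μM–1 mM. After EDTA quench, Tb-pSer641 antibody/streptavidin-d2 TR-FRET 665/615 ratio fitted for IC50.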

[2] = biological target: T2, GSK3b (GST-full length GSK3b) (Homo sapiens, UniProt P49841); assay: GSK3b TR-FRET kinase inhibition assay; assay type: biochemical
T2 construct: GST-full length GSK3b: [SignalChem G08-9G]; purchased SignalChem G08-9G
Outline: as §1

[3] = Human liver microsomal stability; assay type: in vitro ADME; conditions: human liver microsomes
Description: Stability of compound (5 μL of a 10 mM DMSO solution) in human liver microsomes was tested in duplicate by incubating compound at 1 μM for 60 minutes at 37° C. Compound level at 60 minutes was compared to level at 0 minutes, and percent remaining was calculated. Order by selecting Microsomal Stability in Prometheus, checking boxes for desired species. Assay Controls: microsomes with NADPH without compound-matrix interference. Microsomes plus compound without NADPH—non-enzymatic instability.

[4] = tested on: MDR1-MDCK cell monolayers; assay: MDR1/MDCK permeability assay; assay type: in vitro ADME; conditions: for MDCK Permeability (MDR1-MDCK); Mean; Papp(A-B) (10^−6 cm/s): A to B; for MDCK Permeability (MDR1-MDCK); Mean; Papp(B-A) (10^−6 cm/s): B to A; for MDCK Permeability (MDR1-MDCK); Mean; P. Ratio(B-A/A-B) Efflux Ratio / MIDCK Permeability (MDR1-MDCK); Mean; P. Ratio(B-A/A-B) Efflux Ratio: Papp B-A/A-B
Excerpt: The MDR1/MDCK assay is run at WuXi and Absorption Systems. This assay is used to determine the blood-brain barrier (BBB) penetration potential of a test compound using MDR1-MDCK cell monolayers. Catalog number EA203.
• The percent recovery of the test compound from the Transwell® wells containing MDR1-MDCK cell monolayers • The apparent permeability (Papp) in both directions • The efflux ratio (Papp B to A)/(Papp A to B) • The blood-brain barrier penetration potential classification: • High when • Papp A to B≥3.0×10^−6 cm/s, and efflux<3.0 • Moderate when • Papp A to B≥3.0×10^−6 cm/s, and 10>efflux≥3.0 • Low when either • Papp A to B≥3.0×10^−6 cm/s, and […], or when • Papp A to B<[…].
• Test compound at 5 μM in HBSSg with maximum DMSO concentration not greater than 1%.
• Confluent monolayers of MDR1-MDCK cells, 7 to 11 days old.
• Receiver well with 1% BSA in modified Hanks buffer (HBSSg) • Apical and basolateral side at pH 7.4 • Dose two monolayers in each direction (N=2) • Dose apical side for (A to B) assessment • Dose basolateral side for (B to A) assessment • Sample both apical and basolateral sides at 120 minutes • Determine the concentrations of test compound using a generic LC-MS/MS method with a minimum 4 point calibration curve.
• The quality of the cell monolayer batch is verified using control compounds before monolayers are released for use • The quality of each monolayer used in the assay is verified by a TEER measurement and by calculating the Papp for a control compound.

[5] = 4 μM ATP, read-out: GSK3α TR-FRET 4 μM ATP GMean IC50
[6] = 1 mM ATP, Table 4, read-out: GSK3α TR-FRET 1 mM ATP GMean IC50
[7] = 2 μM ATP, read-out: GSK3β TR-FRET 2 μM ATP GMean IC50
[8] = 1 mM ATP, Table 4, read-out: GSK3β TR-FRET 1 mM ATP GMean IC50
[9] = 10 μM ATP, read-out: GSK3a 10 μM ATP Average IC50
[10] = 100 μM ATP, read-out: GSK3a 100 μM ATP Average IC50
[11] = 1 mM ATP, Table 3, read-out: GSK3a TR-FRET 1 mM ATP Average IC50
[12] = 10 μM ATP, read-out: GSK3b 10 μM ATP Average IC50
[13] = 100 μM ATP, read-out: GSK3b 100 μM ATP Average IC50
[14] = 1 mM ATP, Table 3, read-out: GSK3b TR-FRET 1 mM ATP Average IC50

T1 sequence (P49840 whole entry): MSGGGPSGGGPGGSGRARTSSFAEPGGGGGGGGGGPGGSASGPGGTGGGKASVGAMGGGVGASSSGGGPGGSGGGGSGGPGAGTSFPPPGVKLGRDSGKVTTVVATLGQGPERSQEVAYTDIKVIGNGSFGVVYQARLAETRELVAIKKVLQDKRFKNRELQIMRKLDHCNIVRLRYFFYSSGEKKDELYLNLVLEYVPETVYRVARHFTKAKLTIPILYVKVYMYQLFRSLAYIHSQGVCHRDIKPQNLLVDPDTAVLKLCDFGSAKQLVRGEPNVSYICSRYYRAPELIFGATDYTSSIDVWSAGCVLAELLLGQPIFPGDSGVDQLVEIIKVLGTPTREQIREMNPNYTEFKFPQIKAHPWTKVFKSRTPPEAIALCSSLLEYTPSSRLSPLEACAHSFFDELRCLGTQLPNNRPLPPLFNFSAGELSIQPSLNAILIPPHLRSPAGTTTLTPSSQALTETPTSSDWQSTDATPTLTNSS
T2 sequence (P49841 whole entry): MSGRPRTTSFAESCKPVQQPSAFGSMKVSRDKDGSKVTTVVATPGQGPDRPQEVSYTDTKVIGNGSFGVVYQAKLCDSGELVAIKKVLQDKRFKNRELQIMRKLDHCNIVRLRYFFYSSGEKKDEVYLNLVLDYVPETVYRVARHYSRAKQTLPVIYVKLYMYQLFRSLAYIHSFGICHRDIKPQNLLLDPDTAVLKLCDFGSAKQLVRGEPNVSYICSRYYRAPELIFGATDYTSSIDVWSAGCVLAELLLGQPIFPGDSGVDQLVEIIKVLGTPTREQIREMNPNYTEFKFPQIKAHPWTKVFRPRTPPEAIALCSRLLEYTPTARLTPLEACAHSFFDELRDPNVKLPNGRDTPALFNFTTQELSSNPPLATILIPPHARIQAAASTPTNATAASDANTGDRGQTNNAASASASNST

Row | Compound | IC50 [1, 5] | IC50 [2, 7] | Microsome Stability (Human) (DMPK_BIIB); Mean; in vitro t1/2 ([3]; Table 4) | MDCK Permeability (MDR1-MDCK); Mean; Papp(A-B) (10^−6 cm/s) ([4]; Table 4) | MDCK Permeability (MDR1-MDCK); Mean; Papp(B-A) (10^−6 cm/s) ([4]; Table 4) | MDCK Permeability (MDR1-MDCK); Mean; P. Ratio(B-A/A-B) Efflux Ratio ([4]; Table 4) | IC50 [1, 11] | IC50 [2, 14] | further results
1 | CCC1(c2ccccc2)C2=C(CC(C)(C)CC2=O)Nc2ncccc21 (single isomer, unassigned) [102 A] | ≤ 0.1 µM | ≤ 0.1 µM | 9.1 min | 8.7 10^−6 cm/s | 26 10^−6 cm/s | 2.9 |  |  | IC50 [1, 6]: 1 to 5 µM; IC50 [2, 8]: 5 to 20 µM
2 | CCC1(c2ccccc2)C2=C(CC(C)(C)CC2=O)Nc2ncccc21 (single isomer, unassigned) [102 B] | > 5 µM | > 5 µM | 1.2 min | 6.7 10^−6 cm/s | 29 10^−6 cm/s | 4.3 |  |  | 
3 | CCC1(c2cccc(-c3ccnc(C)c3C)c2)C2=C(CC(C)(C)CC2=O)Nc2ncccc21 (single isomer, unassigned) [147 B] | ≤ 0.1 µM | ≤ 0.1 µM | 14 min | 8.1 10^−6 cm/s | 31 10^−6 cm/s | 3.8 |  |  | IC50 [1, 6]: 0.1 to 1 µM; IC50 [2, 8]: 1 to 5 µM
4 | CC1(C)CC(=O)C2=C(C1)Nc1ncccc1C2(C)c1ccccc1 (single isomer, unassigned) [Compound 101A] |  |  |  |  |  |  | 1 to 5 µM | 1 to 5 µM | IC50 [1, 9]: ≤ 0.1 µM; IC50 [1, 10]: 0.1 to 1 µM; IC50 [2, 12]: ≤ 0.1 µM; IC50 [2, 13]: 0.1 to 1 µM; Microsome Stability (Human) (DMPK_BIIB); Mean; in vitro t1/2 ([3]; Table 3): 37 min; MDCK Permeability (MDR1-MDCK); Mean; Papp(A-B) (10^−6 cm/s) ([4]; Table 3): 30 10^−6 cm/s; MDCK Permeability (MDR1-MDCK); Mean; Papp(B-A) (10^−6 cm/s) ([4]; Table 3): 22 10^−6 cm/s; MIDCK Permeability (MDR1-MDCK); Mean; P. Ratio(B-A/A-B) Efflux Ratio ([4]; Table 3): 0.72
5 | CCC1(c2ccccc2)C2=C(CC(C)(C)CC2=O)Nc2ncccc21 (single isomer, unassigned) [Compound 102A] |  |  |  |  |  |  | 1 to 5 µM | 1 to 5 µM | IC50 [1, 9]: ≤ 0.1 µM; IC50 [1, 10]: 0.1 to 1 µM; IC50 [2, 12]: ≤ 0.1 µM; IC50 [2, 13]: 0.1 to 1 µM; Microsome Stability (Human) (DMPK_BIIB); Mean; in vitro t1/2 ([3]; Table 3): 14 min; MDCK Permeability (MDR1-MDCK); Mean; Papp(A-B) (10^−6 cm/s) ([4]; Table 3): 22 10^−6 cm/s; MDCK Permeability (MDR1-MDCK); Mean; Papp(B-A) (10^−6 cm/s) ([4]; Table 3): 19 10^−6 cm/s; MIDCK Permeability (MDR1-MDCK); Mean; P. Ratio(B-A/A-B) Efflux Ratio ([4]; Table 3): 0.87
6 | CC1(C)CC(=O)C2=C(C1)Nc1ncc(F)cc1C2(C)c1ccccc1 (single isomer, unassigned) [Compound 107B] |  |  |  |  |  |  | 1 to 5 µM | 1 to 5 µM | Microsome Stability (Human) (DMPK_BIIB); Mean; in vitro t1/2 ([3]; Table 3): 94 min; MDCK Permeability (MDR1-MDCK); Mean; Papp(A-B) (10^−6 cm/s) ([4]; Table 3): 30 10^−6 cm/s; MDCK Permeability (MDR1-MDCK); Mean; Papp(B-A) (10^−6 cm/s) ([4]; Table 3): 18 10^−6 cm/s; MIDCK Permeability (MDR1-MDCK); Mean; P. Ratio(B-A/A-B) Efflux Ratio ([4]; Table 3): 0.61
7 | CC1(C)CC(=O)C2=C(C1)Nc1nccc(C#N)c1C2(C)c1ccccc1 (single isomer, unassigned) [Compound 108A] |  |  |  |  |  |  | 0.1 to 1 µM | 0.1 to 1 µM | MDCK Permeability (MDR1-MDCK); Mean; Papp(A-B) (10^−6 cm/s) ([4]; Table 3): 18 10^−6 cm/s; MDCK Permeability (MDR1-MDCK); Mean; Papp(B-A) (10^−6 cm/s) ([4]; Table 3): 56 10^−6 cm/s; MIDCK Permeability (MDR1-MDCK); Mean; P. Ratio(B-A/A-B) Efflux Ratio ([4]; Table 3): 3.2
8 | CCC1(c2ccccc2)C2=C(CC3(CCC3)CC2=O)Nc2ncccc21 (single isomer, unassigned) [Compound 110A] |  |  | 5.4 min | 22 10^−6 cm/s | 31 10^−6 cm/s | 1.4 | 1 to 5 µM | 5 to 20 µM | 
9 | CCC1(c2ccccc2)C2=C(CC3(CCC3)CC2=O)Nc2ncccc21 (single isomer, unassigned) [Compound 110B] |  |  | 1.7 min | 13 10^−6 cm/s | 27 10^−6 cm/s | 2.1 |  |  | 
10 | CCC1(c2ccccc2)C2=C(CC(C)(C)CC2=O)Nc2ncc(F)cc21 (single isomer, unassigned) [Compound 114B] |  |  | 1.7 min | 12 10^−6 cm/s | 24 10^−6 cm/s | 2.1 |  |  | 
11 | CC1(C)CC(=O)C2=C(C1)Nc1ncc(F)c(C#N)c1C2(C)c1ccccc1 (single isomer, unassigned) [Compound 121A] |  |  |  |  |  |  | ≤ 0.1 µM | ≤ 0.1 µM | MDCK Permeability (MDR1-MDCK); Mean; Papp(A-B) (10^−6 cm/s) ([4]; Table 3): 22 10^−6 cm/s; MDCK Permeability (MDR1-MDCK); Mean; Papp(B-A) (10^−6 cm/s) ([4]; Table 3): 63 10^−6 cm/s; MIDCK Permeability (MDR1-MDCK); Mean; P. Ratio(B-A/A-B) Efflux Ratio ([4]; Table 3): 2.9
12 | CCC1(c2ccccc2)C2=C(CC(C)(C)CC2=O)Nc2ncc(C(F)(F)F)cc21 (single isomer, unassigned) [Compound 133B] |  |  | 73 min | 11 10^−6 cm/s | 16 10^−6 cm/s | 1.5 |  |  | 
13 | CC1(C)CC(=O)C2=C(C1)Nc1ncc(F)cc1C2(C)c1cccc(S(C)(=O)=O)c1 (single isomer, unassigned) [Compound 139A] |  |  |  |  |  |  | ≤ 0.1 µM | ≤ 0.1 µM | MDCK Permeability (MDR1-MDCK); Mean; Papp(A-B) (10^−6 cm/s) ([4]; Table 3): 0.52 10^−6 cm/s; MDCK Permeability (MDR1-MDCK); Mean; Papp(B-A) (10^−6 cm/s) ([4]; Table 3): 75 10^−6 cm/s; MIDCK Permeability (MDR1-MDCK); Mean; P. Ratio(B-A/A-B) Efflux Ratio ([4]; Table 3): 144
14 | CCC1(c2cccc(-c3cn(C)nc3C)c2)C2=C(CC(C)(C)CC2=O)Nc2ncc(F)cc21 (single isomer, unassigned) [Compound 1032A] | ≤ 0.1 µM | 0.1 to 1 µM |  |  |  |  |  |  | 
15 | CCC1(c2cccc(-c3cc(C)nn3C)c2)C2=C(CC(C)(C)CC2=O)Nc2ncc(F)cc21 (single isomer, unassigned) [Compound 1033A] | 1 to 5 µM | > 5 µM |  |  |  |  |  |  | 
16 | CCC1(c2cccc(-c3cc(C)nn3C)c2)C2=C(CC(C)(C)CC2=O)Nc2ncc(F)cc21 (single isomer, unassigned) [Compound 1033B] | ≤ 0.1 µM | ≤ 0.1 µM |  |  |  |  |  |  | 
17 | CCC1(c2cccc(-c3ccnc4c3CCC4)c2)C2=C(CC(C)(C)CC2=O)Nc2ncccc21 (single isomer, unassigned) [Compound 1034A] | > 5 µM | > 5 µM |  |  |  |  |  |  | 
18 | CCC1(c2cccc(-c3ccnc(C)c3C)c2)C2=C(CC(C)(C)CC2=O)Nc2ncc(F)cc21 (single isomer, unassigned) [Compound 1035A] | 1 to 5 µM | 1 to 5 µM |  |  |  |  |  |  | 
19 | CCC1(c2cccc(-c3ccnc(C)c3C)c2)C2=C(CC(C)(C)CC2=O)Nc2ncc(F)cc21 (single isomer, unassigned) [Compound 1035B] | 1 to 5 µM | 1 to 5 µM |  |  |  |  |  |  | 
20 | CCC1(c2cccc(-c3ccncc3OC)c2)C2=C(CC(C)(C)CC2=O)Nc2ncc(F)cc21 (single isomer, unassigned) [Compound 1037A] | 1 to 5 µM | 1 to 5 µM |  |  |  |  |  |  | 
21 | CCC1(c2cccc(-c3ccnc4c3CCCC4)c2)C2=C(CC(C)(C)CC2=O)Nc2ncccc21 (single isomer, unassigned) [Compound 1039A] | 0.1 to 1 µM | 0.1 to 1 µM |  |  |  |  |  |  | 
22 | CC1(C)CC(=O)C2=C(C1)Nc1ncccc1C2c1ccccc1 (stereo not drawn) [Compound C1, reference compound] | > 5 µM | > 5 µM |  |  |  |  |  |  | 

From US20260103465A1, “GLYCOGEN SYNTHASE KINASE 3 INHIBITORS AND USES THEREOF” (The Broad Institute, Inc., priority 2023, published 2026)
